Columns and labels:
Human LDHA = Human LDHA (Homo sapiens (Human), UniProt P00338); test: human LDHA primary biochemical assay (resazurin/diaphorase coupled, fluorescence); settings: LDHA inhibitory activity, activity level based on IC50 (Table 7)
Description: Test compounds were placed in a Greiner Bio-One (Monroe, N.C.) 1536-well black solid bottom assay plate. 200 millimolar (mM) Tris HCl, pH 7.4, 100 micromolar […] EDTA and 0.01% TWEEN-20™, final concentration, was used as the assay buffer. The LDHA reagent was 2 nanomolar (nM) Human LDHA (Meridian Life Science, Inc., Memphis, Tenn.), final concentration, in assay buffer.

MiaPaCa2 cells = test: cell-based HT lactate assay, colorimetric/fluorometric detection (inhibition of lactate production); settings: class symbols, 0 to 3 pluses

SMILES | IC50 (Human LDHA) [nM] | IC50 (MiaPaCa2 cells; Homo sapiens, MIA PaCa-2) [nM] | IC50 (MiaPaCa2 cells) [nM]
N#CC#Cc1cc(-c2nn(-c3nc(C(=O)O)cs3)c(CC3CC3)c2Cc2ccc(S(N)(=O)=O)c(F)c2)ccc1F [Compound 442] | < 100 | – | 1000 to 10000
CC(F)C#Cc1cc(-c2nn(-c3nc(C(=O)O)cs3)c(CC3CC3)c2Cc2ccc([S+](N)(=O)[O-])c(F)c2)ccc1F (stereo not drawn) [Compound 443] | < 100 | < 1000 | –
NS(=O)(=O)c1ccc(Cc2c(-c3ccc(F)c(C4=CCCC4)c3)nn(-c3nc(C(=O)O)cs3)c2CC2CC2)cc1F [Compound 444] | < 100 | – | < 1000
CC(C)C#Cc1cc(-c2nn(-c3nc(C(=O)O)cs3)c(CC3CC3)c2Cc2ccc([S+](N)(=O)[O-])c(F)c2)ccc1F [Compound 445] | < 100 | – | < 1000
NS(=O)(=O)c1ccc(Cc2c(-c3ccc(F)c(C#CC4CCC4)c3)nn(-c3nc(C(=O)O)cs3)c2CC2CC2)cc1F [Compound 446] | < 100 | – | < 1000
NS(=O)(=O)c1ccc(Cc2cn(-c3nc(C(=O)O)cs3)nc2-c2ccc(F)c(-c3cccc(F)c3)c2)cc1 [Compound 458, 2-(3-(3′,6-difluoro-[1,1′-biphenyl]-3-yl)-4-(4-sulfamoylbenzyl)-1H-pyrazol-1-yl)thiazole-4-carboxylic acid] | < 100 | 1000 to 10000 | –
NS(=O)(=O)c1ccc(Cc2c(-c3ccc(F)c(OCC4CCCO4)c3)nn(-c3nc(C(=O)O)cs3)c2CC2CC2)cc1F (stereo not drawn) [Compound 469, 2-(5-(cyclopropylmethyl)-3-(4-fluoro-3-((tetrahydrofuran-2-yl)methoxy)phenyl)-4-(3-fluoro-4-sulfamoylbenzyl)-1H-pyrazol-1-yl)thiazole-4-carboxylic acid] | < 100 | 1000 to 10000 | –
NS(=O)(=O)c1ccc(Cc2c(-c3ccc(F)c(OCC4CCOC4)c3)nn(-c3nc(C(=O)O)cs3)c2CC2CC2)cc1F (stereo not drawn) [Compound 470, 2-(5-(cyclopropylmethyl)-3-(4-fluoro-3-((tetrahydrofuran-3-yl)methoxy)phenyl)-4-(3-fluoro-4-sulfamoylbenzyl)-1H-pyrazol-1-yl)thiazole-4-carboxylic acid] | < 100 | 1000 to 10000 | –
NS(=O)(=O)c1ccc(Cc2c(-c3ccc(F)c(OCc4ccc(C(F)(F)F)o4)c3)nn(-c3nc(C(=O)O)cs3)c2CC2CC2)cc1F [Compound 473, 2-(5-(cyclopropylmethyl)-3-(4-fluoro-3-((5-(trifluoromethyl)furan-2-yl)methoxy)phenyl)-4-(3-fluoro-4-sulfamoylbenzyl)-1H-pyrazol-1-yl)thiazole-4-carboxylic Acid] | < 100 | < 1000 | –

Now from value to compound, other results behind:

IC50 (Human LDHA) [nM] | IC50 (MiaPaCa2 cells; Homo sapiens, MIA PaCa-2) [nM] | SMILES | IC50 (MiaPaCa2 cells) [nM]
< 100 | < 1000 | Cc1ccc(-c2nn(-c3nc(C(=O)O)cs3)c(CC3CC3)c2Cc2ccc(S(N)(=O)=O)cc2)cc1OC1CCCC1 [Compound 467, 2-(3-(3-(cyclopentyloxy)-4-methylphenyl)-5-(cyclopropylmethyl)-4-(4-sulfamoylbenzyl)-1H-pyrazol-1-yl)thiazole-4-carboxylic acid] | –
100 to 1000 | 1000 to 10000 | NS(=O)(=O)c1ccc(Cc2c(-c3cc(OC4CCCC4)ccc3F)nn(-c3nc(C(=O)O)cs3)c2CC2CC2)cc1 [Compound 468, 2-(3-(5-(cyclopentyloxy)-2-fluorophenyl)-5-(cyclopropylmethyl)-4-(4-sulfamoylbenzyl)-1H-pyrazol-1-yl)thiazole-4-carboxylic acid] | –
< 100 | 1000 to 10000 | COc1cccc(-c2cc(F)cc(-c3nn(-c4nc(C(=O)O)cs4)c(CC4CC4)c3Cc3ccc(S(N)(=O)=O)cc3)c2)c1 [Compound 478, 2-(5-(cyclopropylmethyl)-3-(5-fluoro-3′-methoxy-[1,1′-biphenyl]-3-yl)-4-(4-sulfamoylbenzyl)-1H-pyrazol-1-yl)thiazole-4-carboxylic Acid] | –
< 100 | < 1000 | NS(=O)(=O)c1ccc(Cc2c(-c3cc(F)cc(-c4ccc(F)cc4)c3)nn(-c3nc(C(=O)O)cs3)c2CC2CC2)cc1 [Compound 479, 2-(5-(cyclopropylmethyl)-3-(4′,5-difluoro-[1,1′-biphenyl]-3-yl)-4-(4-sulfamoylbenzyl)-1H-pyrazol-1-yl)thiazole-4-carboxylic Acid] | –
< 100 | < 1000 | NS(=O)(=O)c1ccc(Cc2c(-c3ccc(F)c(OCc4ccccc4)c3)nn(-c3nc(C(=O)O)cs3)c2CC2CC2)cc1 [Compound 480, 2-(3-(3-(benzyloxy)-4-fluorophenyl)-5-(cyclopropylmethyl)-4-(4-sulfamoylbenzyl)-1H-pyrazol-1-yl)thiazole-4-carboxylic Acid] | –
< 100 | 1000 to 10000 | NS(=O)(=O)c1ccc(Cc2c(-c3cccc(Oc4ccc(C(F)(F)F)cc4)c3)nn(-c3nc(C(=O)O)cs3)c2CC2CC2)cc1 [Compound 481, 2-(5-(cyclopropylmethyl)-4-(4-sulfamoylbenzyl)-3-(3-(4-(trifluoromethyl)phenoxy)-phenyl)-1H-pyrazol-1-yl)thiazole-4-carboxylic Acid] | –
< 100 | 1000 to 10000 | NS(=O)(=O)c1ccc(Cc2c(-c3cccc(OCc4ccccc4)c3)nn(-c3nc(C(=O)O)cs3)c2C2CC2)cc1 [Compound 501, 2-(3-(3-(benzyloxy)phenyl)-5-cyclopropyl-4-(4-sulfamoylbenzyl)-1H-pyrazol-1-yl)thiazole-4-carboxylic acid] | –
< 100 | 1000 to 10000 | NS(=O)(=O)c1ccc(Cc2c(-c3cccc(Oc4ccccc4)c3)nn(-c3nc(C(=O)O)cs3)c2C2CC2)cc1 [Compound 502, 2-(5-cyclopropyl-3-(3-phenoxyphenyl)-4-(4-sulfamoylbenzyl)-1H-pyrazol-1-yl)thiazole-4-carboxylic acid] | –
< 100 | 1000 to 10000 | NS(=O)(=O)c1ccc(Cc2c(-c3cccc(Oc4ccccc4)c3)nn(-c3nc(C(=O)O)cs3)c2CC2CC2)cc1 [Compound 503, 2-(5-(cyclopropylmethyl)-3-(3-phenoxyphenyl)-4-(4-sulfamoylbenzyl)-1H-pyrazol-1-yl)thiazole-4-carboxylic Acid] | –
< 100 | 1000 to 10000 | Cc1cc(-c2cccc(F)c2)cc(-c2nn(-c3nc(C(=O)O)cs3)c(CC3CC3)c2Cc2ccc(S(N)(=O)=O)cc2)c1 [Compound 505, 2-(5-(cyclopropylmethyl)-3-(3′-fluoro-5-methyl-[1,1′-biphenyl]-3-yl)-4-(4-sulfamoylbenzyl)-1H-pyrazol-1-yl)thiazole-4-carboxylic Acid] | –
< 100 | 1000 to 10000 | Cc1cc(-c2ccc(F)cc2)cc(-c2nn(-c3nc(C(=O)O)cs3)c(CC3CC3)c2Cc2ccc(S(N)(=O)=O)cc2)c1 [Compound 506, 2-(5-(cyclopropylmethyl)-3-(4′-fluoro-5-methyl-[1,1′-biphenyl]-3-yl)-4-(4-sulfamoylbenzyl)-1H-pyrazol-1-yl)thiazole-4-carboxylic Acid] | –
< 100 | 1000 to 10000 | NS(=O)(=O)c1ccc(Cc2c(-c3cccc(Oc4ccc(F)cc4)c3)nn(-c3nc(C(=O)O)cs3)c2CC2CC2)cc1 [Compound 507, 2-(5-(cyclopropylmethyl)-3-(3-(4-fluorophenoxy)phenyl)-4-(4-sulfamoylbenzyl)-1H-pyrazol-1-yl)thiazole-4-carboxylic Acid] | –

— US10961200B2, “Small molecule inhibitors of lactate dehydrogenase and methods of use thereof” (THE UNITED STATES OF AMERICA, AS REPRESENTED BY THE …, priority 2014, dated 2021)
